Results from patent US8486370B2, “Heterocyclic ligands for integrin imaging and therapy” (The Regents of the University of California, priority 2006, dated 2013).
pIC50: −log10 of the molar value. Where two headings read alike, the source gives them in different places.

Key:
α4β1 integrin = molecular target: T1, α4β1 integrin (Homo sapiens, UniProt P05556+P13612); experiment: Molt4 T-cell leukemia adhesion assay (inhibition of α4β1-mediated cell adhesion to CS-1 peptide); format: cell-based
T1 construct: adding a volume of 80 μL consisted of 1.3×10^5 Molt4 cells; endogenous in cells; host or cells: Molt4 T-cell leukemia cells
Source text: α4β1 integrins are cell surface heterodimeric glycoproteins that mediate cell adhesion to vascular cell adhesion molecule-1 (VCAM-1 or CD 106) as well as to extracellular matrix (ECM) protein fibronectin (FN). Integrin expression and function depend on cell activation. The dynamic changes in integrin affinity, avidity, or activation state are implicated in cell migration, survival and apoptosis, cancer development and metastasis. Binding affinities (IC50s) of the ligands were studied in a Molt4 T-cell leukemia adhesion assay by inhibiting the α4β1-mediated cell adhesion to CS-1 peptide ([…]), which is the binding motif of fibronectin to α4β1 receptor.
General Procedure for Cell Adhesion Assay:
96-well plates were prepared by coating them with 5 μg/mL neutravidin for a one-hour period, followed by adding […] biotin-conjugated CS-1 peptide. The wells were then blocked with 1% […] in phosphate buffer saline (PBS) solution, followed by adding a volume of 80 μL consisted of 1.3×10^5 Molt4 cells, and finally different dilutions of tested ligands in binding buffer (1 mM Mn^2+ TBS), were added to each well. To allow binding, the plates were incubated for 30 min at 37° C., followed by washing of unbound cells with PBS. Bound cells were fixed with 10% formalin buffered in phosphate for 30 min and stained with 0.5% crystal violet. After washing and drying at room temperature, the dye was dissolved in 1% SDS, and absorbance at 570 nm was measured using a 96-well TECAN OD UV/Vis spectrophotometer. Inhibition was calculated as a percentage resulting from the concentration-dependent curve.

[1] = compound by itself; cited from earlier work
[2] = xenograft model, optical and radioimaging; cited from earlier work

T1 sequence (P13612 34-1032): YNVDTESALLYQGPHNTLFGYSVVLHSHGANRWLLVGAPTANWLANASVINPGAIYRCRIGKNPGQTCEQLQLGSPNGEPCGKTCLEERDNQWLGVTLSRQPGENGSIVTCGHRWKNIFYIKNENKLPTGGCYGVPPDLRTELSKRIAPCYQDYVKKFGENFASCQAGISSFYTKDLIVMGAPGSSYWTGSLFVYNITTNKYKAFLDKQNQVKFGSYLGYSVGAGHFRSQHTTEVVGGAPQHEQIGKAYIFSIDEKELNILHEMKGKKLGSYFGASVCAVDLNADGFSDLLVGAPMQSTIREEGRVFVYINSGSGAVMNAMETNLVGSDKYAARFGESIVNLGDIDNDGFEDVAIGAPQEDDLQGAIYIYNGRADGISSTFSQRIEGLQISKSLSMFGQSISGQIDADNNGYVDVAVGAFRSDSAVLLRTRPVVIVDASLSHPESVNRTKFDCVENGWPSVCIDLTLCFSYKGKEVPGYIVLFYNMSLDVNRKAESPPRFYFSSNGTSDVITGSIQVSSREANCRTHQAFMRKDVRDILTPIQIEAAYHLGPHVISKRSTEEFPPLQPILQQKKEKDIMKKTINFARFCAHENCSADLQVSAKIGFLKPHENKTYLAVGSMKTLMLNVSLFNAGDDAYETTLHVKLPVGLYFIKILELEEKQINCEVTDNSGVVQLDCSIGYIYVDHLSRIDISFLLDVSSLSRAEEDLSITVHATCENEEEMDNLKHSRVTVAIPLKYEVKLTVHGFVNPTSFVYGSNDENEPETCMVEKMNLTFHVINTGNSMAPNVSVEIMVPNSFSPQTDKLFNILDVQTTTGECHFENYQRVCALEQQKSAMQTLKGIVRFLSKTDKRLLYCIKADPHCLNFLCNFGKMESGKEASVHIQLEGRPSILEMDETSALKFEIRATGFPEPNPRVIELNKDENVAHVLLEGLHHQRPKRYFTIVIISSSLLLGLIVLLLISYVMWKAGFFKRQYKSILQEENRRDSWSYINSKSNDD
T1 sequence (P05556 21-798): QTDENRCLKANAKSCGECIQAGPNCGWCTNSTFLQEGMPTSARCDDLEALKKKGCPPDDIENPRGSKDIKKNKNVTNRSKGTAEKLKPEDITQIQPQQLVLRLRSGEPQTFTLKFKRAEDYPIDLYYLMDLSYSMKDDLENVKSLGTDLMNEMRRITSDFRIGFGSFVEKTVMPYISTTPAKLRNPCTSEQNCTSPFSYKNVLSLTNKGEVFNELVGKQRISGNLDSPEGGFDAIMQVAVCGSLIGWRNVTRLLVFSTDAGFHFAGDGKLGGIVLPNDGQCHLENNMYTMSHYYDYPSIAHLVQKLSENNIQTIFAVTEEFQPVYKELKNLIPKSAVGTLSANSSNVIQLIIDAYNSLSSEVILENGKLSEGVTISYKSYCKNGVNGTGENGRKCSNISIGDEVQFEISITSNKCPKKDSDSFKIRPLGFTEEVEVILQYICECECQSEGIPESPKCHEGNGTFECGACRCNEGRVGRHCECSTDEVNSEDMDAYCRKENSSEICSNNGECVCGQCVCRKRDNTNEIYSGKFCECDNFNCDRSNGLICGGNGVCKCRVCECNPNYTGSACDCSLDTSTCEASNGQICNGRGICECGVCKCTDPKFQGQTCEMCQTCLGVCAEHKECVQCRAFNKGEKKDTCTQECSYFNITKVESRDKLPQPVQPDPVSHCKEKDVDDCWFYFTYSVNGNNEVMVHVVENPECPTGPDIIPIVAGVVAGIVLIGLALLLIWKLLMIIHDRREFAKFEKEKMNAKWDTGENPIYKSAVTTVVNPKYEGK

| pIC50 (α4β1 integrin) | Compound | other results |
| --- | --- | --- |
| – | NC(=O)C1(NC(=O)[C@H](CCCC(=O)O)NC(=O)[C@H](CCCCNC(=O)/C=C/c2cccnc2)NC(=O)c2ccc(Nc3nc4cc(Br)ccc4[nH]3)cc2)CCCCC1 [KLCA12] | pIC50 (α4β1 integrin; Molt4 cells, adhesion to biotin-conjugated CS-1 peptide, 1 mM Mn2+ TBS, 30 min at 37° C.): 9.94 |
| 10.28 | NC(=O)C1(NC(=O)C(CCCC(=O)O)NC(=O)C(CCCCNC(=O)C=Cc2cccnc2)NC(=O)Cc2ccc(Nc3nc4ccccc4s3)cc2)CCCCC1 (stereo not drawn) [KLCA14] | – |
| 8.40 | Cc1cccc2oc(Nc3ccc(CC(=O)NC(CCCCNC(=O)C=Cc4cccnc4)C(=O)NC(CCCC(=O)O)C(=O)NC4(C(N)=O)CCCCC4)cc3)nc12 (stereo not drawn) [KLCA15] | – |
| 8.70 | NC(=O)C1(NC(=O)C(CCCC(=O)O)NC(=O)C(CCCCNC(=O)C=Cc2cccnc2)NC(=O)Cc2ccc(Nc3nc4ccccc4o3)cc2)CCCCC1 (stereo not drawn) [KLCA16] | – |
| – | Cc1ccccc1NC(=O)Nc1ccc(CC(=O)N[C@@H](CCCCNC(=O)/C=C/c2cccnc2)C(=O)N[C@@H](CCCC(=O)O)C(=O)NC2(C(N)=O)CCCCC2)cc1 [LLP2A] | water solubility [1]: not very water soluble; uptake in the kidneys [2]: rather high uptake in the kidneys |
